What was measured:
[1] = tested on: subjects with schizophrenia; test: Correlation of pre-treatment resting-state EEG metrics (power law exponent, beta power) with response to poma treatment (MCCB domain scores), clinical trials NCT00845026 and NCT01052103; format: in vivo, human; conditions: subgroups of patients identified by EEG metrics (Examples 1-3)
Excerpt: The power spectrum of resting state EEG signals, when viewed in the frequency domain (that is, with frequency of oscillation on the x-axis and power on the y-axis), forms roughly a straight line, when viewed on a log-log plot; see FIG.5 (from Miller et al. […] PLoS Comput Biol 5(12): e1000609)
Mathematically, this can be expressed as log (P)=k−βlog (f), or equivalently, P αf−β1/fβ), where P=power, f=frequency, −β is the slope of the fitted line, and k is a constant. This phenomenon is known by various terms, such as a “power law” spectrum or “1/f noise”. It is often referred to as “scale invariant” or “fractal” behavior (Lowen and Teich, 2005), as the power law exponent, β, is constant regardless of the resolution at which it is calculated.
This study used data from clinical trials NCT00845026 (N=117) and NCT01052103 (N=196), which studied male and female subjects with schizophrenia treated with poma vs. antipsychotic agent standard of care. […] We calculated only power at the stimulated frequency and, for recordings in the resting state, the power law exponent (PLE; also known as the “fractal exponent”). […] We calculated all predictive measures for each EEG electrode. […]

[2] = tested on: subjects with schizophrenia; conditions: cited from earlier work
[3] = humans; cited from earlier work

Structure (SMILES)	Cognitive function in measures of working memory, reasoning/problem solving, and attention/vigilance [1]	Efficacy versus placebo as determined with PANSS total scores ([2]; clinical studies, halted)	Dosage shown to be efficacious ([2]; early phase II monotherapy trial)	Oral absorption and bioavailability [3]
CSCC[C@H](N)C(=O)N[C@@]1(C(=O)O)CS(=O)(=O)[C@H]2[C@H](C(=O)O)[C@H]21 [poma, Pomaglumetad methionil]	significant improvement in cognitive function	not significantly more efficacious than the placebo	40 mg BID	
N[C@@]1(C(=O)O)CS(=O)(=O)[C@H]2[C@H](C(=O)O)[C@H]21 [pomaglumetad]				low

— patent publication US20220313170A1, “METHOD OF INCREASING COGNITIVE FUNCTION WITH GLUTAMATE RECEPTOR AGONIST” (priority 2019, published 2022)
